Assay results: PubChem BioAssay AID493002 (Sanford-Burnham Center for Chemical Genomics, 2010)

Test system: S. cerevisiae tim23-1 mutant growth, luminescence
Experiment: potency against tim23-1 yeast growth – luminescence, uHTS hits, dose response (AID 493002);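 note: yeast grown roughly 22 hours at 25 °C before the luminescence read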

Row | Compound | IC50 [µM]
1 | CCN(CC)S(=O)(=O)c1ccc(C(=O)OCn2nnc3ccccc3c2=O)cc1 | 9.32
2 | CC(C)Cn1cnc2c(c(-c3ccccc3)c(-c3ccccc3)n2Cc2ccco2)c1=N | 9.48
3 | Cc1cccc(OCCN2C(=O)C(=O)c3cc(C)ccc32)c1 | 9.52
4 | NS(=O)(=O)c1ccc(N=Cc2c(O)n(C3CCCCC3)c(=O)n(C3CCCCC3)c2=O)cc1 | 14.4
5 | CC1(C)CC(=O)C=C(c2ccc(I)cc2)C1 | 14.8
6 | COCCn1c(C)cc(C(=O)COC(=O)c2ccc([N+](=O)[O-])o2)c1C | 6.98
7 | O=C(Nc1ccc(Oc2cccc3ccccc23)cc1)c1ccco1 | 8.33
8 | COC(=O)c1cccc(NC(=O)c2ccc(OC)c(Cl)c2)c1 | 20.6
9 | CCOC(=O)c1cccc(OC(=O)CCNC(=O)c2ccc(Cl)cc2)c1 | 13.1
10 | COc1cc(C(=O)N/N=C/c2coc3ccc(Cl)cc3c2=O)ccc1O | 4.34
11 | OCCOCCNc1ncnc2c1c(-c1ccccc1)cn2-c1ccccc1 | 10.7
12 | O=S(=O)(CCSc1ccccn1)c1nc2ccccc2s1 | 10
13 | CCOC(=O)C1=C(CSc2nc(CC)c(C)cc2C#N)OC(N)=C(C#N)C1c1ccc(OC)cc1 (stereo unspecified) | 17.8
14 | Nc1cc([N+](=O)[O-])cc2oc(-c3ccccc3)cc12 | 13.1
15 | Cc1nc2scc(C)n2c(=O)c1S(=O)(=O)Nc1ccc(N2CCOCC2)cc1 | 6.67
16 | COc1ccc(C(C[N+](=O)[O-])c2c(C)[nH]n(-c3ccccc3)c2=O)cc1 (stereo unspecified) | 7.55
17 | COc1cc(NC(=O)c2cccs2)ccc1NC(=O)c1ccccc1Cl | 6.75
18 | CNC(=S)N/N=C/c1cc(Br)cc(Br)c1O | 3.14
19 | CC1=CC(C)(C)N(C(=O)c2ccc(F)cc2)c2cc3c(cc21)OCO3 | 14.3
20 | CCCOc1cccc(C(=O)N/N=C/c2coc3ccccc3c2=O)c1 | 13.4
21 | COc1cc2ccccc2cc1C(=O)Nc1ccc(C)cc1 | 12.5
22 | Cc1cccc(C)c1N1C(=O)CN(Cc2ccccc2)C1=S | 28.1
23 | O=C(/C=C/c1ccccc1)NCCc1c[nH]c2ccccc12 | 15

Row | Compound | IC50 [µM]
24 | Cc1ccc(C(=O)NC(=S)NCc2ccccc2)cc1 | 12.1
25 | O=C(/C=C/c1ccccc1Cl)Nc1ccccc1 | 12.2
26 | CCc1ccc(C2CC(=O)NC(SCC(=O)OC(C)C)=C2C#N)cc1 (stereo unspecified) | 18.2
27 | O=C(Nc1cccc(NC(=O)c2cccs2)c1)c1ccc(Br)o1 | 9.28
28 | Cc1cc(NC(=O)c2ccco2)sc1C | 18
29 | c1ccc2[nH]c(-c3ccc4c(c3)OCO4)nc2c1 | 8.63
30 | C/C(=N\Nc1cc(N2CCCCC2)nc(C)n1)c1ccc(Br)cc1 | 14.2
31 | Cc1ccc2occ(C(=O)c3ccco3)c(=O)c2c1 | 9.16
32 | O=C(Nc1ccc(F)c(Cl)c1)c1ccccc1 | 11.5
33 | Cc1cccc(N2C(=O)c3ccc(Br)cc3C2=O)n1 | 12.7
34 | CCOC(=O)c1cccnc1SCc1cc(=O)n2ccccc2n1 | 9.96
35 | O=C(Nc1oc2ccc(Cl)cc2c(=O)c1-c1ccc(F)cc1)c1ccco1 | 17.1
36 | O=C(/C=C\Nc1cccc(F)c1)c1cccs1 | 7.31
37 | COC(=O)c1ccc(C(=O)OC)c(NC(=O)CSc2cccc[n+]2[O-])c1 | 4.4
38 | Cc1nc(Nc2ccccc2)sc1C(=O)Nc1ccccc1 | 14.6
39 | O=c1oc(Cl)c(Cl)c2ccccc12 | 3.83
40 | CC(C)(C)C(=O)c1sc(Nc2ccccc2)nc1N | 12
41 | CCOC(=O)CSc1c(-c2cccs2)[nH]c2ccccc12 | 15.2
42 | Nc1ccc(/C=C/C(=O)c2cccs2)cc1 | 4.31
43 | Cc1ccc(C(=O)C(C)OC(=O)c2cc3cc([N+](=O)[O-])ccc3oc2=O)cc1 (stereo unspecified) | 14.9
44 | CC1(C)OC(=O)C(=Cc2ccc[nH]2)C(=O)O1 | 8.73
45 | CCOc1cc(/C=C2\SC(N3CCCC(C)C3)=NC2=O)ccc1O (stereo unspecified) | 28.8
46 | O=C(NCCCc1ccccc1)c1c(O)nc2sccn2c1=O | 4.63

Row | Compound | IC50 [µM]
47 | Cc1ccc(/C=N/NC(=O)c2ccc3c(c2)OCCO3)s1 | 34.6
48 | Cc1occc1C(=O)N/N=C/C(Br)=C/c1ccccc1 | 9.06
49 | CCc1ccc(NC(=O)/C(C#N)=C/c2ccncc2)cc1 | 4.41
50 | Cc1ccc(/C=N/NC(=O)c2csc3c2CCCC3)cc1 | 15.1
51 | CCCCc1cc(O)c(CCCC)c(O)c1 | 3.69
52 | O=C1c2cccc3c(Cl)ccc(c23)C(=O)N1O | 9.64
53 | COc1ccc(C(=O)N/N=C\c2coc3ccccc3c2=O)cc1 | 13.7
54 | O=c1/c(=C/c2cccc3ccccc23)sc2ncnn12 | 7.13
55 | Cc1ccc2nc(NC(=O)COC(=O)c3cccnc3)sc2c1 | 9.58
56 | c1cnc2c(c1)ccc1cccnc12 | 9.59
57 | CC(=O)Nc1ncnc2c1c(-c1ccc(Cl)cc1)nn2C(C)(C)C | 10
58 | O=C(/C=C/c1ccco1)Nc1scc(-c2ccccc2)c1C(=O)O | 13.6
59 | O=C(Nc1ccc(-c2cn3ccccc3n2)cc1)c1ccco1 | 6.01
60 | CCC(C)c1ccc(NC(=O)C2CC3CCC2C3)cc1 (stereo unspecified) | 12.5
61 | CSc1nnc(C(C)(C)C)c(=O)n1/N=C/c1ccccc1 | 13.6
62 | Cc1[nH]c2ccccc2c1C(=O)/C=C/c1ccccc1 | 9.05
63 | O=C(CSc1nnnn1Cc1ccccc1)c1ccc(F)cc1 | 20
64 | O=C(CSc1cccs1)Nc1ccc2ccccc2c1 | 12.2
65 | Cn1c(=O)c(C(=O)Nc2ncccn2)c(O)c2ccccc21 | 8.49
66 | Cc1cc(C(=O)Nc2ccc(Br)cn2)sc1C | 21.1
67 | Cc1ccc2nc(-c3ccc(N)cc3)sc2c1 | 9.95
68 | O=C(Nc1ccccc1N(C(=O)c1ccco1)S(=O)(=O)c1cccs1)c1ccco1 | 9.78
69 | Nc1nc(Nc2ccccc2)sc1C(=O)c1ccccc1 | 21

Row | Compound | IC50 [µM]
70 | CC1(S(=O)(=O)O)CC(=O)c2ccccc2C1=O (stereo unspecified) | 6.57
71 | O=C(CSc1cccc[n+]1[O-])Nc1ccccc1Oc1ccccc1 | 3.98
72 | O=c1cc(C(Cl)(Cl)Cl)oc2c1ccc1ccccc12 | 2.2
73 | O=C(O)c1ccc(N/N=C/c2ccc(-c3ccc(Br)cc3)o2)cc1 | 16.2
74 | Cc1nc(-c2ccc(NC(=O)c3ccccc3)cc2)cs1 | 13
75 | O=C(Nc1ccc(-c2cn3ccccc3n2)cc1)c1cccs1 | 2.92
76 | O=C(c1cc(-c2cccc(O)c2)on1)N1CCc2ccccc2C1 | 16
77 | Nc1ccc2nc(SCc3cccc(F)c3)sc2c1 | 13.9
78 | CSC1=N/C(=C\c2ccc(C)cc2)C(=O)S1 | 10.3
79 | COc1ccc(-c2nc3ccccc3[nH]2)cc1 | 18
80 | CCOc1nc2ccccc2cc1C=O | 3.43
81 | c1ccc(-c2nc(NCc3cccs3)c3ccccc3n2)cc1 | 12.7
82 | O=Cc1cn(CCOc2ccccc2F)c2ccccc12 | 13
83 | Nc1ncnc2c1ncn2[C@@H]1O[C@H](CO)C[C@H]1O | 14
84 | CC1=C(C)/C(=N/OC(=O)c2cccc([N+](=O)[O-])c2)C=CC1=O | 8.03
85 | O=C(N/N=C/c1cccs1)c1cc(-c2cccc3ccccc23)n[nH]1 | 28
86 | N#C/C(=C\c1ccc(Cl)cc1)C(=O)Nc1cccnc1 | 5.72
87 | C=C1CCc2c([nH]c3ccc(OCC(C)C)cc23)C1=O | 3.33
88 | O=C(Nc1ccn(Cc2ccc(Cl)cc2)n1)c1ccc2c(c1)OCO2 | 11.1
89 | O=C(N/N=C/c1ccc([N+](=O)[O-])s1)c1ccncc1 | 4.88
90 | CCN(CC)c1ccc(C(=O)Nc2cccc(F)c2)cc1 | 5.19
91 | CN1CCc2nc3sc(C(=O)C45CC6CC(CC(C6)C4)C5)c(N)c3cc2C1 | 2.43
